Calls of active or inactive are those of the source. How the calls were made is not given here.
What follows are molecules tested against Chaperone protein DnaK (Escherichia coli (strain K12)) (UniProt P0A6Y8) (assay: binders of DnaK substrate-binding domain, biophysical, NMR, chaperone (AID 1033)). Conditions: Purified DnaK SBD, NMR ligand binding.
Chain of Chaperone protein DnaK (Escherichia coli (strain K12)) (P0A6Y8 whole entry, looked up, the tested form may be a part): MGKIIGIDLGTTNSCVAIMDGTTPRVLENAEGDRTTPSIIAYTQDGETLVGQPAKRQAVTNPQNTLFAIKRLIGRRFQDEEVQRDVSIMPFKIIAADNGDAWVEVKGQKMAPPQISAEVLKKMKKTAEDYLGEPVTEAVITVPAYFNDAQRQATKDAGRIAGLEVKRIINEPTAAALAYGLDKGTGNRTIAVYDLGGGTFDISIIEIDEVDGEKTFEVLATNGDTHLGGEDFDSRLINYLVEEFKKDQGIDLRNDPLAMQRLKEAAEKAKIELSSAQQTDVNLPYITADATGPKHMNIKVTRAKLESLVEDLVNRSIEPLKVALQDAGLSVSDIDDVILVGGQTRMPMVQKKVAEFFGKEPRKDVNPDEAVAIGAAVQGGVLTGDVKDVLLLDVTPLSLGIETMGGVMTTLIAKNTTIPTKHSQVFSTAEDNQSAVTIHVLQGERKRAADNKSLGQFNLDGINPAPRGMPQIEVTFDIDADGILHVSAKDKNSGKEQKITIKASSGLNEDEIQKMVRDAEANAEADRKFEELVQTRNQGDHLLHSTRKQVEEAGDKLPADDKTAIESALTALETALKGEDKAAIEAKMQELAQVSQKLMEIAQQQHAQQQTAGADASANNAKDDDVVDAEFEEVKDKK
With `Cc1nnc(SCC(=O)NCc2ccccc2)[nH]c1=O` the Kd was > 4 mM (inactive).
With `CCCn1cnn2c(=O)cc(C)nc12` the Kd was > 4 mM (inactive).
For `Cc1cc(C)c(-c2cc(C(F)(F)F)no2)c(=O)[nH]1`, the Kd was > 4 mM (inactive).
In the case of `Cc1ccc2nc(NC(=O)CN3CCOCC3)sc2c1`, the Kd is reported as > 4 mM (inactive).
With `CNS(=O)(=O)c1ccc2[nH]c(=O)[nH]c2c1` the Kd was > 4 mM (inactive).
For `COc1cc(C2NC(=S)NC(C)=C2C(C)=O)ccc1O` (centres undefined), the Kd was > 4 mM (inactive).
For `Nc1ccc2c(c1)OCO2`, the Kd was > 4 mM (inactive).
With `O=c1[nH]cnc2c1nnn2Cc1ccccc1` the Kd was > 4 mM (inactive).
In the case of `CC(Sc1ncn[nH]1)C(=O)O` (centres undefined), the Kd is reported as > 4 mM (inactive).
With `CNC(=S)NCCN1CCOCC1` the Kd was > 4 mM (inactive).
In the case of `O=C(/C=C1\SC(=O)NC1=O)NCc1ccccc1`, the Kd is reported as > 4 mM (inactive).
`CNC(=O)c1cc2cccc(OC)c2oc1=O` was tested, and the Kd was > 4 mM (inactive).
In the case of `CC(C)=CCc1c(O)cc2occ(-c3ccc4c(c3)OCO4)c(=O)c2c1O`, the Kd is reported as > 4 mM (inactive).
`Cc1cc(C)n(C2CCS(=O)(=O)C2)n1` (centres undefined) was tested, and the Kd was > 4 mM (inactive).
With `Cn1c(CO)nc2cc(N)ccc21` the Kd was > 4 mM (inactive).
For `Cc1oc(-c2ccccc2)nc1CC(=O)O`, the Kd was > 4 mM (inactive).
In the case of `CC(=O)NC(O)C(=O)c1cccs1` (centres undefined), the Kd is reported as > 4 mM (inactive).
For `NCc1ccc2c(c1)CCO2`, the Kd was > 4 mM (inactive).
For `COc1ccc(-c2cc(=O)c3c(OC)c(OC)c(OC)c(OC)c3o2)cc1OC`, the Kd was > 4 mM (inactive).
With `C[n+]1ccn(C/C(N)=N/O)c1` the Kd was > 4 mM (inactive).
With `Cc1cc(O)cc(=O)n1CCCC(=O)O` the Kd was > 4 mM (inactive).
`CNC(=O)c1c(O)c2ccccc2[nH]c1=O` was tested, and the Kd was > 4 mM (inactive).
For `Cc1ncc(C(=O)O)c(-c2ccccc2)n1`, the Kd was > 4 mM (inactive).
In the case of `NC1=NN(c2ccccc2)C(=O)C1`, the Kd is reported as > 4 mM (inactive).
`O=C(O)c1ccc2sccc2c1` was tested, and the Kd was > 4 mM (inactive).
For `O=C1NC(=S)S/C1=C/c1ccncc1`, the Kd was > 4 mM (inactive).
In the case of `CNC(=S)Nc1ccc2c(c1)OCO2`, the Kd is reported as > 4 mM (inactive).
In the case of `O=C(CN1C(=O)CCC1=O)c1ccccc1`, the Kd is reported as > 4 mM (inactive).
`COc1cc(OC)c2c(=O)c(O)c(-c3ccc(OC)c(OC)c3)oc2c1` was tested, and the Kd was > 4 mM (inactive).
`CC(=O)OCC(=O)[C@@]1(O)CCC2C3CC[C@@H]4C[C@H](O)CC[C@]4(C)C3C(=O)C[C@@]21C` (some centres undefined) was tested, and the Kd was > 4 mM (inactive).
`O=C(O)CCS(=O)(=O)c1ccccc1` was tested, and the Kd was > 4 mM (inactive).
With `c1ccc2nc3c(nc2c1)CCc1nonc1-3` the Kd was > 4 mM (inactive).
With `CC(=O)c1cc(CN2C(=O)c3ccccc3C2=O)cs1` the Kd was > 4 mM (inactive).
`CN(C)c1nc(N)nc(-c2nc3ccccc3s2)n1` was tested, and the Kd was > 4 mM (inactive).
For `CCOC(=O)c1[nH]cnc1C(=O)OC(C)C`, the Kd was > 4 mM (inactive).
`NCc1ccccc1N1CCOCC1` was tested, and the Kd was > 4 mM (inactive).
In the case of `O=C(Nc1cnccn1)c1ccncc1`, the Kd is reported as > 4 mM (inactive).
For `O=C(O)CCc1c[nH]c2ccccc12`, the Kd was > 4 mM (inactive).
For `CC(=O)c1c(C)nc(-c2ccc(Cl)cc2Cl)n1O`, the Kd was > 4 mM (inactive).
`CC(=O)Oc1c2c(c3c(c1CC=C(C)C)O[C@]14C(=C[C@@H]5CC1C(C)(C)OC4(C/C=C(\C)C(=O)O)C5=O)C3=O)OC(C)(CCC=C(C)C)C=C2` (some centres undefined) was tested, and the Kd was > 4 mM (inactive).
With `CC1NC(C(=O)O)Cc2c1[nH]c1ccccc21` (centres undefined) the Kd was > 4 mM (inactive).
For `Cc1nn(C)c(Cl)c1C(O)c1c(C)nn(C)c1Cl`, the Kd was > 4 mM (inactive).
With `O=C1NC(=O)C(=Cc2cccs2)C(=O)N1` the Kd was > 4 mM (inactive).
With `CSc1nnnn1-c1cccc(O)c1` the Kd was > 4 mM (inactive).
With `CC(C)=CCCC1(C)C=Cc2c(O)c3c(c(CC=C(C)C)c2O1)OC12C(=CC4CC1C(C)(C)OC2(C/C=C(/C)C(=O)O)C4=O)C3=O` (centres undefined) the Kd was > 4 mM (inactive).
For `NC(=O)COc1ccccc1O`, the Kd was > 4 mM (inactive).
With `Cc1nc2nc(COc3ccccc3)nn2c(C)c1Cl` the Kd was > 4 mM (inactive).
`COc1c(O)cc2c(c1O)[C@H]1O[C@H](CO)[C@@H](O)[C@H](O)[C@@H]1OC2=O` was tested, and the Kd was > 4 mM (inactive).
With `NC(=O)Cc1nc(-c2ccccc2)cs1` the Kd was > 4 mM (inactive).
With `O=C(COc1ccccc1)N1CCc2ccccc2C1` the Kd was > 4 mM (inactive).
In the case of `O=C(NCc1ccccn1)c1ccc(Cl)cc1Cl`, the Kd is reported as > 4 mM (inactive).
`CS(=O)(=O)Cc1ccccc1` was tested, and the Kd was > 4 mM (inactive).
In the case of `Cc1cc(C(=O)NCc2cccnc2)no1`, the Kd is reported as > 4 mM (inactive).
In the case of `C=C(C)[C@H]1COc2cc3oc(=O)ccc3cc2O1`, the Kd is reported as > 4 mM (inactive).
`COc1ccccc1-c1noc(-c2ccco2)n1` was tested, and the Kd was > 4 mM (inactive).
For `CC(=O)NC(=S)Nc1ccc(N(C)C(C)=O)cc1`, the Kd was > 4 mM (inactive).
`O=C(NC(=S)NC1CCSC1=O)c1ccco1` (centres undefined) was tested, and the Kd was > 4 mM (inactive).
`O=C(NCc1ccccn1)c1ccccc1Cl` was tested, and the Kd was > 4 mM (inactive).
For `CCn1ncc(Cl)c1C(=O)Nc1ccncc1`, the Kd was > 4 mM (inactive).
With `COCc1cc(Cl)nc(-c2csc(C)n2)n1` the Kd was > 4 mM (inactive).
With `O=C1CSC(c2ccccc2)N1` (centres undefined) the Kd was > 4 mM (inactive).
For `Cc1cc(C(=O)Nc2sc3c(c2C#N)CCC3)no1`, the Kd was > 4 mM (inactive).
In the case of `Cc1noc(C)c1C(=O)Nc1sc(C)c(C)c1C#N`, the Kd is reported as > 4 mM (inactive).
For `CC1(C)C2CC[C@]3(C)C(C(=O)C=C4[C@H]5C[C@@](C)(C(=O)O)CC[C@]5(C)CC[C@]43C)[C@@]2(C)CC[C@@H]1O` (some centres undefined), the Kd was > 4 mM (inactive).
In the case of `COC(=O)c1ccc2nccnc2c1`, the Kd is reported as > 4 mM (inactive).
In the case of `O=C(NCc1ccco1)c1cccc(F)c1`, the Kd is reported as > 4 mM (inactive).
`Cc1ccc(C)n1NC(=O)c1cccs1` was tested, and the Kd was > 4 mM (inactive).
With `O=C(NCc1ccco1)c1ccc(=O)[nH]c1` the Kd was > 4 mM (inactive).
`Cc1csc(NC(=O)c2cccs2)n1` was tested, and the Kd was > 4 mM (inactive).
`Cc1sc2nc(SC3CCOC3=O)[nH]c(=O)c2c1C` (centres undefined) was tested, and the Kd was > 4 mM (inactive).
With `CNC(=O)C(=O)Nc1cccc(Cl)c1` the Kd was > 4 mM (inactive).
With `COC1(C)CCC2OC2(C)CCC2C1CC2(C)C` (centres undefined) the Kd was > 4 mM (inactive).
For `COc1ccc(/C=C2\SC(N)=NC2=O)cc1`, the Kd was > 4 mM (inactive).
For `O=C(O)C1CCCN1Cc1c[nH]c2ccccc12` (centres undefined), the Kd was > 4 mM (inactive).
With `CCN1C(=O)c2c(C)nc3ccccc3c2C1=O` the Kd was > 4 mM (inactive).
For `Cn1c(=O)[nH]c2nc[nH]c2c1=O`, the Kd was > 4 mM (inactive).
In the case of `Cc1nnsc1C(=O)Nc1cccc(S(N)(=O)=O)c1`, the Kd is reported as > 4 mM (inactive).
For `CN(C)c1ccc(N2C(=O)CCC2=O)cc1`, the Kd was > 4 mM (inactive).
For `C=C1C2=CC(=O)O[C@@H](c3ccoc3)[C@]2(C)CCC1[C@@]1(C)C=CC(=O)C(C)(C)[C@@H]1CC(=O)OC` (some centres undefined), the Kd was > 4 mM (inactive).
In the case of `COC(=O)[C@@]1(C)CCC[C@]2(C)c3ccc(O)c(C(C)C)c3CCC12` (some centres undefined), the Kd is reported as > 4 mM (inactive).
In the case of `CC(=O)c1cccc(NS(=O)(=O)N(C)C)c1`, the Kd is reported as > 4 mM (inactive).
For `OCCOc1ccc(C2=NCCO2)cc1`, the Kd was > 4 mM (inactive).
For `CN1CC(=O)Nc2ccc([N+](=O)[O-])cc2C1=O`, the Kd was > 4 mM (inactive).
With `CCOC(=O)c1sc(SC)c2c1CCCC2O` (centres undefined) the Kd was > 4 mM (inactive).
`CN(C)Cc1c(N)cccc1O` was tested, and the Kd was > 4 mM (inactive).
For `NC1=C([N+](=O)[O-])C(=O)c2ccccc21`, the Kd was > 4 mM (inactive).
With `CP(C)(=O)c1cccc(C(=O)O)c1` the Kd was > 4 mM (inactive).
`NC(=O)c1ccc2c(c1)OCO2` was tested, and the Kd was > 4 mM (inactive).
In the case of `CC1CCC2(OC1)OC1CC3C4CC[C@H]5C[C@@H](O)CC[C@]5(C)C4CC(=O)[C@]3(C)C1C2C` (some centres undefined), the Kd is reported as > 4 mM (inactive).
With `O=C(NCC1CCNCC1)c1ccncc1` the Kd was > 4 mM (inactive).
For `Cn1nc(C(=O)N2CCOCC2)c2ccccc2c1=O`, the Kd was > 4 mM (inactive).
With `NCc1cccc2nsnc12` the Kd was > 4 mM (inactive).
In the case of `COc1ccc(NC(=O)/C=N/O)cc1`, the Kd is reported as > 4 mM (inactive).
With `CC(=O)O[C@H]1C[C@@H](OC(C)=O)C(C)(C)C2C[C@@H](O)[C@]3(C)C(CC[C@@]4(C)[C@H](c5ccoc5)OC(=O)[C@H]5O[C@]543)[C@]21C` (some centres undefined) the Kd was > 4 mM (inactive).
With `C=C1C(=O)OC2CC1C(OC(C)=O)C/C(C)=C/CC/C(C)=C/CC[C@]2(C)O` (some centres undefined) the Kd was > 4 mM (inactive).
In the case of `CC1SC(=NC(=O)c2ccco2)NC1=O` (centres undefined), the Kd is reported as > 4 mM (inactive).
For `CCOC(=O)Cc1nc2ccccc2[nH]1`, the Kd was > 4 mM (inactive).
For `COc1cc(OC)c(-c2nc3cnccc3n2C)cc1OC`, the Kd was > 4 mM (inactive).
In the case of `NS(=O)(=O)c1ccc(NC(=O)C2CC2)cc1`, the Kd is reported as > 4 mM (inactive).
In the case of `CCn1ccc(C(=O)Nc2nccs2)n1`, the Kd is reported as > 4 mM (inactive).
In the case of `Cc1cc(=O)n2ccc(CN3CCOCC3)c(O)c2n1`, the Kd is reported as > 4 mM (inactive).
For `COC(=O)N1CCN(c2ccc(C(C)=O)cc2)CC1`, the Kd was > 4 mM (inactive).
In the case of `Cc1nc2ccccc2c2c1C(=O)N(C)C2=O`, the Kd is reported as > 4 mM (inactive).
For `OCc1ccncc1`, the Kd was > 4 mM (inactive).
For `Cc1cc(=O)[nH]c(N)n1`, the Kd was > 4 mM (inactive).
`CC(=O)Nc1cccc(N2CCCC2=O)c1` was tested, and the Kd was > 4 mM (inactive).
For `CC(=O)c1c(C)n(O)c2ccc3nonc3c12`, the Kd was > 4 mM (inactive).
With `CC(=O)N1C(=S)NC(=O)/C1=C\c1cccnc1` the Kd was > 4 mM (inactive).
With `COC(=O)c1cn(C(=O)OC)c2ccccc12` the Kd was > 4 mM (inactive).
With `CCCNC(=O)CSc1ncccc1C(=O)O` the Kd was > 4 mM (inactive).
With `CNC(=O)C1COc2ccccc2O1` (centres undefined) the Kd was > 4 mM (inactive).
For `CCS(=O)(=O)N1CCN(c2ccccc2F)CC1`, the Kd was > 4 mM (inactive).
In the case of `CC(CCC(=O)O)[C@H]1CCC2C3CC[C@@H]4C[C@H](O)CC[C@]4(C)C3CC[C@@]21C` (some centres undefined), the Kd is reported as > 4 mM (inactive).
With `O=c1c(-c2ccccc2)coc2cc(O)cc(O)c12` the Kd was > 4 mM (inactive).
With `Cc1cc(F)c(F)c(C(=O)NC2CC2)c1Cl` the Kd was > 4 mM (inactive).
For `O=C(O)CCC(=O)Nc1nnc(C(F)(F)F)s1`, the Kd was > 4 mM (inactive).
`Cc1ccc(S(=O)(=O)CC(=O)N(C)C)cc1` was tested, and the Kd was > 4 mM (inactive).
`Cc1nc2ccc(NC(=O)N3CCOCC3)cc2s1` was tested, and the Kd was > 4 mM (inactive).
`O=C1NC(=O)C(Cc2cccs2)C(=O)N1` was tested, and the Kd was > 4 mM (inactive).

From PubChem BioAssay AID1033 (Sanford-Burnham Center for Chemical Genomics, 2008)
